Data from patent US20080255215A1, “Combinations of Alkylalkanolamines and Alkylbisalkanolamines for Antimicrobial Compositions” (priority 2005, published 2008).

Columns and labels:
[1] = system: Pseudomonas aerguinosa (ATCC 15442); experiment: Kinetic absorbance assay of bacterial growth (maximum growth slope), amines and amine pairs with KATHON 886MW biocide; assay type: cell-based; details: KATHON 100 ppm; for Maximum Growth Slope: pH 8.5
Method: A kinetic assay was run via absorbance measurements in a 384 well micro-titer plate with 75 μL) plate volume. Pseudomonas aerguinosa (ATCC 15442) was used as the inoculum for this kinetic assay. The organism was grown overnight in Trypticase Soy broth, pelleted, and resuspended in new medium at half its original density. The final inoculum was determined from plate counts on TSA plates spread at the time of use as 8.0×10E10 CFU/mL Each well of the microtiter plate (well volume=75 μL) was filled with 25 μL of a buffered aqueous solution of the amine being tested at the concentration necessary to yield the desired test concentration after dilution, enough Tris buffer to keep the well pH at 8.5, 25 μL of a biocide solution, and 25 μL reconstituted bacterial culture. The pH was adjusted to 8.5 with the buffer. The biocide was KATHON 886MW. The following amines were tested: butylaminoethanol (BAE, a compound according to formula I), butyldiethanolamine (BDEA, a compound according to formula II), octylaminoethanol (OAE, a compound according to formula I), and octyldiethanolamine (ODEA, a compound according to formula II), all at 99% purity): […]
The columns were laid out as follows:
The experiment ran for 20 hours with absorbance measurements taken once every 15 minutes. The data was processed by taking 10 point maximum growth slopes (milliOD per minute) after a 3 hour delay. The results of the above series are shown in FIG. 1, and selected data are tabulated in Table 2, in which biocide (KATHON) was used at a 100 ppm level.

[2] = system: Pseudomonas aerguinosa (ATCC 27853); experiment: End-point absorbance assay of bacterial growth in 384 well microtiter plate, single amines with KATHON 886MW biocide; assay type: cell-based; details: for Effectiveness as an enhancer for the biocide: amine 400 ppm with KATHON 886MW up to 50 ppm, assessment in words; for End-point absorbance (660 nm): amine 400 ppm, 48 hours growth, pH 8.5
Method: A kinetic assay of bacterial growth in a 384 well microtiter plate was monitored by absorbance at 660 nm. The bacteria was Pseudomonas aerguinosa (ATCC 27853). The organism was grown overnight in Trypticase Soy Broth (TSB), pelleted, and resuspended in new medium at half its original density. The final inoculum was determined from plate counts on Trypticase Soy Agar (TSA) plates spread at the time of use as 4.5×10E10 CFU/mL. Each well of the microtiter plate (well volume=75 μL) was filled with 25 μL of a buffered aqueous solution of the amine being tested at the concentration necessary to yield the desired test concentration after dilution, enough Tris buffer to keep the well pH at 8.5, 25 μL of a biocide solution, and 25 μL reconstituted bacterial culture. The biocide solution and bacterial inoculum were mixed with TSB nutrient. The biocide utilized was KATHON 886MW (supplied by Rohm & Haas Company, Springhouse, Pa.). KATHON 886 MW is a 15% active solution of ⅔ CMIT (5-chloro-2-methyl-4-isothiazolin-3-one) and ⅓ MIT (2-methyl-4-isothiazolin-3-one). The experimental assessment of bacterial growth was made through an end-point absorbance measurement taken after 48 hours of growth in the various media. The concentration of the 4 different amines was 400 ppm. The concentration of the biocide was an experimental variable. The amines employed in this experiment were decyloxypropylaminopropylamine (DOPAPA), octylaminoethanol (OAE, a compound according to formula I), octyldiethanolamine (ODEA, a compound according to formula II), and dicyclohexylamine (DCHA). All absorbance values are the averages of at least three replicates.

[3] = amine 2000 ppm, 10 point maximum slope after 3 hour delay

| Structure (SMILES) | Comparative effectiveness (runs of Table 2) ([1]; assessment in words) | Maximum Growth Slope ([1]; amine 1000 ppm) [MilliOD/min] | Maximum Growth Slope [1, 3] [MilliOD/min] | Effectiveness as an enhancer for the biocide [2] | End-point absorbance (660 nm) ([2]; KATHON 886MW loading 0 ppm) | End-point absorbance (660 nm) ([2]; KATHON 886MW loading 12 ppm) | End-point absorbance (660 nm) ([2]; KATHON 886MW loading 25 ppm) | End-point absorbance (660 nm) ([2]; KATHON 886MW loading 50 ppm) | Maximum Growth Slope ([1]; amine 250 ppm) [MilliOD/min] | Maximum Growth Slope ([1]; amine 500 ppm) [MilliOD/min] |
| --- | --- | --- | --- | --- | --- | --- | --- | --- | --- | --- |
| CCCCNCCO [BAE, butylaminoethanol] | more effective than BDEA alone | 0.9 | 0.4 |  |  |  |  |  |  |  |
| CCCCN(CCO)CCO [BDEA, butyldiethanolamine] |  | 1.3 | 0.8 |  |  |  |  |  |  |  |
| C1CCC(NC2CCCCC2)CC1 [DCHA, dicyclohexylamine, reference compound] |  |  |  | marginal enhancer | 0.14 | 0.14 | 0.10 | 0.07 |  |  |
| CCCCCCCCCCOCCCNCCCN [DOPAPA, decyloxypropylaminopropylamine, reference compound] |  |  |  | weak or ineffective | app. 0.3 | app. 0.3 | app. 0.3 | app. 0.3 |  |  |
| CCCCCCCCNCCO [OAE, octylaminoethanol] |  |  |  | excellent enhancer | 0 | 0 | 0 | 0 | 0.4 | −0.1 |
| CCCCCCCCN(CCO)CCO [ODEA, octyldiethanolamine] |  |  |  | moderately effective enhancer | 0.12 | 0.08 | 0.08 | 0.03 | 0.6 | 0.4 |
